Results as given in ChEMBL document CHEMBL2021875, “Anthracyclinones from Micromonospora sp” (J Nat Prod, 2012).

System: HCT-8
Experiment: Cytotoxicity against human HCT8 cells after 72 hrs by MTT assay
Assay type: functional, cell-based
Conditions: HCT-8, 72 h

Q: Which IC50 does the source give for `CCCc1ccc2c(O)c3c(c(O)c2c1)C(=O)c1cccc(O)c1C3=O` here?
A: Its IC50 is 12.7 µM.

Q: `CCCc1ccc2c(c1)C(=O)c1cc3cccc(OC)c3cc1C2=O` was tested. Which IC50 did it give?
A: Its IC50 is > 70 µM.

Q: How did the IC50 turn out when `CCC[C@@]1(O)CCC2=C(C1)C(=O)c1cc3cccc(OC)c3cc1C2=O` was run?
A: The IC50 was > 70 µM.

Q: How did the IC50 turn out when `CCC[C@@]1(O)C[C@H](O)c2c(O)c3c(c(O)c2[C@H]1C(=O)OC)C(=O)c1cccc(O)c1C3=O` was run?
A: Its IC50 is 6.2 µM.

Q: For `COc1cccc2c1C(=O)c1c(O)c3c(c(O)c1C2=O)C[C@@](O)(C(=O)CO)C[C@@H]3O[C@H]1C[C@H](N)[C@H](O)[C@H](C)O1` [DOXORUBICIN], which IC50 is on record?
A: Its IC50 is 0.1 µM.
